Measured values taken from patent publication US20220041641A1, “QUATERNARY AMMONIUM SALTS AS INHIBITORS OF TRIMETHYLAMINE PRODUCTION” (Senda Biosciences, Inc., priority 2018, published 2022).

What was measured:
[1] = biological target: CutC from Proteus mirabilis (Proteus mirabilis, UniProt B4EYG1); assay: Cell-based assay for TMA production from a native producer (P. mirabilis); settings: d9-TMA from 1 mM d9-choline, 5 h, 37° C.; value 10 given when no fit or % TMA remaining at 10 μM higher than 15%; read-out: Average IC50 Whole cell P. mirabilis
Chain of CutC from Proteus mirabilis (B4EYG1 entry or part of it): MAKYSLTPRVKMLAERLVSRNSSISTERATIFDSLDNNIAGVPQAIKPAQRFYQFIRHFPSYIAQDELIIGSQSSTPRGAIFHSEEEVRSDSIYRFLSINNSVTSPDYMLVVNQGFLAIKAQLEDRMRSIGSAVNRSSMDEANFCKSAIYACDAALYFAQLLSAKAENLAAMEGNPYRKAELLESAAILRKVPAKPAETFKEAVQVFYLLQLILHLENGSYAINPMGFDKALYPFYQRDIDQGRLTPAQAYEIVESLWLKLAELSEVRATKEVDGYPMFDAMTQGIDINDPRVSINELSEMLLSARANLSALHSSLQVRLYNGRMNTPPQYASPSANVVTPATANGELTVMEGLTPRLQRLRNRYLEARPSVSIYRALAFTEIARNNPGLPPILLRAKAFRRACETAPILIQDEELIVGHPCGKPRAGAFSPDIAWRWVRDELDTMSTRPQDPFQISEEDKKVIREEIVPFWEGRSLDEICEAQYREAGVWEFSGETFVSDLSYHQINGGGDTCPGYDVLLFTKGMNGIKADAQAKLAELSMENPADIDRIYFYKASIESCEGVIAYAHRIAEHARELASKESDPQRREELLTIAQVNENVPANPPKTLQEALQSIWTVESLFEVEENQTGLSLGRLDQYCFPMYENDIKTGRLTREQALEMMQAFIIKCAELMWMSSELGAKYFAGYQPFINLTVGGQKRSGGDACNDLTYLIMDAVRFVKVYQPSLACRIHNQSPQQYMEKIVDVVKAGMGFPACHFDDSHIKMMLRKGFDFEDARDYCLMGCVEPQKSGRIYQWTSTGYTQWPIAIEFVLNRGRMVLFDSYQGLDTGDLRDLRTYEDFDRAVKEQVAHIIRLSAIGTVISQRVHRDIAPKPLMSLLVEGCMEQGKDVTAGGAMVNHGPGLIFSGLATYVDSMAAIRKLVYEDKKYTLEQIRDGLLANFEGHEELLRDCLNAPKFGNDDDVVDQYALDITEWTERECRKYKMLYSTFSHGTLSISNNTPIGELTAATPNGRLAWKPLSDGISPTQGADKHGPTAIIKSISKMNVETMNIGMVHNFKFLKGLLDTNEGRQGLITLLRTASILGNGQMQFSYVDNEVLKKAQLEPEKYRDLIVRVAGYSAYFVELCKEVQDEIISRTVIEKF
Chain of CutC from Proteus mirabilis (B4EYG0 entry or part of it, further chain): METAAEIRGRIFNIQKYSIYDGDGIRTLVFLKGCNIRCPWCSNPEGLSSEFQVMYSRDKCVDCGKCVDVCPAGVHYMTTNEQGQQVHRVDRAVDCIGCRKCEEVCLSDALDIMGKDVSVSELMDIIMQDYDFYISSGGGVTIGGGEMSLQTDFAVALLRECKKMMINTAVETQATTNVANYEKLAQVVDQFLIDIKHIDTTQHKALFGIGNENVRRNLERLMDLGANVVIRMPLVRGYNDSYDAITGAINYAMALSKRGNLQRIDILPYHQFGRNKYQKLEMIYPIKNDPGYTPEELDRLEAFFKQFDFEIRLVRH
Method in brief: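 Overnight anaerobic cultures of P. mirabilis or C. sporogenes, grown in BHI with 1 mM choline, were diluted and given 1 mM (trimethyl-d9)-choline plus compound at 10 μM final. After 5 h at 37° C., d9-TMA was quantified by LCMS.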

in vivo = assay: in vivo; design: species or system Sprague-Dawley rats; settings: Sprague-Dawley, rat
Protocol: Sprague-Dawley rats (three rats per compound) were treated with a single intravenous (IV) 1 mg/kg dose or orally (PO) a single 10 mg/kg dose. Plasma concentrations of the conjugates were determined by LCMS at 5 minutes, 15 minutes, 30 minutes, 1 hour, 2 hours, 4 hours, 8 and 24 hours post compound administration. […] In addition, the plasma exposure and bioavailability of the active agent of was lower when dosed as a conjugate instead of the active agent alone.

[2] = system: enzymatic activity in fecal matter; assay: Inhibition of enzymatic activity in fecal matter; assay type: cell-based; settings: d9-choline 1 mM, 16 hours at 37° C., anaerobic, d9-TMA by LCMS
Protocol: Inhibition of enzymatic activity in fecal matter was determined by adding a substrate (d9-choline, 1 mM final concentration) and a compound in a range of concentrations in order to determine an IC50. After incubation for a designated 16 hours at 37° C. in anaerobic conditions, samples were be prepared for LCMS analysis, and the amount of d9-TMA produced was determined using LCMS analysis as in the Examples above.

[3] = Pharmacokinetic study of colon contents and plasma after oral dose of conjugate; assay type: in vivo, male C57B3L/6 mice; settings: male, C57B3L/6, mouse, in vivo, po
Protocol: To confirm that the active agent component of the conjugate is released in the gastrointestinal tract, a pharmacokinetic study was conducted in male C57B3L/6 mice examining conjugate and active agent of concentrations in both the colon contents and plasma after oral dose of conjugate. Conjugate and active agent of were quantified by LCMS at 0 (pre-dose), 0.25, 0.5, 1, 2, 4, 6, 8, 12, and 24 hours post-dose of compound.

[4] = Caco-2 permeability assay; assay type: in vitro ADME; settings: human, Caco-2, pH 7.4
Protocol: Preparation of Caco-2 Cells: 50 μL and 25 mL of cell culture medium were added to each well of the Transwell insert and reservoir, respectively. The HTS transwell plates were incubated at 37° C., 5% CO2 for 1 hour before cell seeding. […] Cell culture medium was replaced every other day, beginning no later than 24 hours after initial plating.
Assessment of Cell Monolayer Integrity: Medium was removed from the reservoir and each Transwell insert and replaced with prewarmed fresh culture medium. Transepithelial electrical resistance (TEER) across the monolayer was measured using Millicell Epithelial Volt-Ohm measuring system (Millipore, USA). The Plate was returned to the incubator once the measurement was done. The TEER value was calculated according to the following equation: […]
Preparation of Solutions: 2 mM stock solutions in DMSO of control compounds were prepared and diluted with HBSS (10 mM HEPES, pH 7.4) to get 10 μM working solution. 0.2 mM stock solutions of test compounds in DMSO were prepared and diluted with HBSS (10 mM HEPES, pH 7.4 with 0.5% BSA) to get 1 μM working solution. Metoprolol, erythromycin and cimetidine were used as control compounds.
The Caco-2 plate was removed from the incubator. The monolayer was washed twice with pre-warmed HBSS (10 mM HEPES, pH 7.4). The plate was incubated at 37° C. for 30 minutes. To determine the rate of drug transport in the apical to basolateral direction, 125 μL of the working solution was added to the Transwell insert (apical compartment). A 50 μL sample was transferred immediately from the apical compartment to 200 μL of acetonitrile containing IS (100 nM alprazolam, 200 nM Caffeine and 100 nM tolbutamide) in a new 96-well plate as the initial donor sample (A-B) and it was vortexed at 1000 rpm for 10 minutes. The wells in the receiver plate (basolateral compartment) were filled with 235 μL of transport buffer. To determine the rate of drug transport in the basolateral to apical direction, 285 μL of the working solution were added to the receiver plate wells (basolateral compartment). A 50 μL sample was transferred immediately from the basolateral compartment to 200 μL of acetonitrile containing IS (100 nM alprazolam, 200 nM Caffeine and 100 nM tolbutamide) in a new 96-well plate as the initial donor sample (B-A) and it was vortexed at 1000 rpm for 10 minutes. The Transwell insert (apical compartment) was filled with 75 μL of transport buffer. The apical to basolateral direction and the basolateral to apical direction need to be done at the same time. The plates were incubated at 37° C. for 2 hours. At the end of the incubation, 50 μL samples from donor sides (apical compartment for Ap→Bl flux, and basolateral compartment for B1→Ap) and receiver sides (basolateral compartment for Ap→Bl flux, and apical compartment for B1→Ap) were transferred to wells of a new 96-well plate, followed by the addition of 4 volume of acetonitrile containing IS (100 nM alprazolam, 200 nM Caffeine and 100 nM tolbutamide). Samples were vortexed for 10 minutes, 50 μL samples were transferred to wells of a new 96-well plate, followed by the addition of 50 μL Hepes and 200 μL IS. All samples were vortexed for 10 minutes, and then centrifuged at 3,220 g for 40 minutes. An aliquot of 150 μL of the supernatant was mixed with an appropriate volume of ultra-pure water before LC-MS/MS analysis.
Apparent permeability (Papp) can be calculated for drug transport assays using the following equation: […]
Papp is apparent permeability (cm/s×10^−6);
Papp (B-A) indicates the apparent permeability coefficient in basolateral to apical direction, and
Papp (A-B) indicates the apparent permeability coefficient in apical to basolateral direction.

For `CC(=O)OC[C@@H]1O[C@H](OCC[N+](C)(C)CCl)[C@@H](OC(C)=O)[C@H](OC(C)=O)[C@H]1OC(C)=O` (stereo in doubt) [Compound 78, N-(chloromethyl)-N,N-dimethyl-2-(((2S,3S,4R,5S,6S)-3,4,5-triacetoxy-6-(acetoxymethyl)tetrahydro-2H-pyran-2-yl)oxy)ethan-1-aminium Iodide], the IC50 [1] was no less than 10 µM, the Cmax (in vivo; iv, 1 mg/kg) was 6 nM and the IC50 [2] was 0.39 µM.

In the case of `CC(=O)OCC1OC(OCC[N+](C)(C)CF)C(OC(C)=O)C(OC(C)=O)C1OC(C)=O.[I-]` (stereo in doubt) [Compound 79, N-(fluoromethyl)-N,N-dimethyl-2-(((2S,3S,4R,5S,6S)-3,4,5-triacetoxy-6-(acetoxymethyl)tetrahydro-2H-pyran-2-yl)oxy)ethan-1-aminium Iodide], the Cmax (in vivo; iv, 1 mg/kg) is reported as 13600 nM, the “% F” value (in vivo; po, 10 mg/kg) is reported as 1.60% and the Cmax (in vivo; po, 10 mg/kg) is reported as 260 nM. For the same molecule, the bioavailability (in vivo; po, 10 mg/kg) was 2.16%, the Cmax [3] was 5 nM and the Papp A→B at 2 h, 1 µM [4] was 0.214 ×10⁻⁶ cm/s. The Papp B→A at 2 h, 1 µM [4] was 0.255 ×10⁻⁶ cm/s.

`CC(=O)OC[C@@H]1O[C@H](OCC[N+](C)(C)CF)[C@@H](OC(C)=O)[C@H](OC(C)=O)[C@H]1OC(C)=O` (stereo in doubt) [Compound 79, N-(fluoromethyl)-N,N-dimethyl-2-(((2S,3S,4R,5S,6S)-3,4,5-triacetoxy-6-(acetoxymethyl)tetrahydro-2H-pyran-2-yl)oxy)ethan-1-aminium Iodide] showed an IC50 [1] of no less than 10 µM, a Cmax (in vivo; iv, 1 mg/kg) of 1 nM and a Cmax (in vivo; po, 10 mg/kg) of 50 nM. It also gave an IC50 [2] of 1.17 µM.
